Assay [1] concerns the target T1, Gastrin/cholecystokinin type B receptor (Mus musculus, UniProt P56481).
T1 sequence (P56481 whole entry): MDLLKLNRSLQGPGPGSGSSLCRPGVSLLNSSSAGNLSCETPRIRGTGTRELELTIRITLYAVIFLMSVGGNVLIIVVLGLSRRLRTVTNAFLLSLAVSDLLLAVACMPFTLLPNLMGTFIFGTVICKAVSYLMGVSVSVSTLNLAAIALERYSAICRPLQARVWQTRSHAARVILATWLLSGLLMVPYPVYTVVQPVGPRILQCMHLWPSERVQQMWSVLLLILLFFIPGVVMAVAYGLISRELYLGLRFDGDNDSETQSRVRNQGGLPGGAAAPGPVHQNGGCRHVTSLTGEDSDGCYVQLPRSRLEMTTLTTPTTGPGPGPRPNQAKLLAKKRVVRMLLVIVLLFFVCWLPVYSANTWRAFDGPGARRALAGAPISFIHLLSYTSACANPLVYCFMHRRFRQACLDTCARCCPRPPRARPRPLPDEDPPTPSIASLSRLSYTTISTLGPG
Nature of the assay: Inhibition of [3H]propionyl-CCK-8 binding to mouse cerebral cortex membrane cholecystokinin-B (CCK-B) receptor. Type of assay: tissue-based.

Assay [2] deals with T2, Cholecystokinin receptor type A (Rattus norvegicus, UniProt P30551).
T2 sequence (P30551 whole entry): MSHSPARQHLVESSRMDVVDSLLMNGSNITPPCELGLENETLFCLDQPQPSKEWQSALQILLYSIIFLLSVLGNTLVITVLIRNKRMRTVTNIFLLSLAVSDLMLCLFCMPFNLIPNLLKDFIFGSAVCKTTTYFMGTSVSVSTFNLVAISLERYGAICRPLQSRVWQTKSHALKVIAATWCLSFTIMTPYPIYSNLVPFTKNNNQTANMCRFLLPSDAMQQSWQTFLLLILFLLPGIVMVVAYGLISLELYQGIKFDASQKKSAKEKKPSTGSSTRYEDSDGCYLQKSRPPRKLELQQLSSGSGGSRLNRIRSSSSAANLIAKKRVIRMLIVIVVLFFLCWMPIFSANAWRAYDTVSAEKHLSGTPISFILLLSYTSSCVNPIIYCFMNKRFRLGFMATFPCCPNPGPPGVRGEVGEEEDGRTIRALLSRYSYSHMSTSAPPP
Description: Inhibition of [3H]propionyl-CCK-8 binding to rat pancreas cholecystokinin-A (CCK-A) receptor.

Where only a bound is given, the exact number is not on record here.

For the compound `C[Si](C)(C)CCOC(=O)C[C@@H](Cc1ccccc1)NC(=O)[C@@H]1Cc2c([nH]c3ccccc23)[C@@H]2C[C@H](NC(=O)OCc3ccccc3)C(=O)N12`, the IC50 – broadly, the concentration that inhibits the measured activity by half – was over 10000 nM in assay [1] and 1400 nM in assay [2].

Turning to `CC(C)(C)OC(=O)N[C@H]1C[C@@H]2c3[nH]c4ccccc4c3C[C@@H](C(=O)N[C@@H](CC(=O)O)Cc3ccccc3)N2C1=O`, the concentration for half-maximal inhibition (IC50) in assay [1] is over 10000 nM; in assay [2] it was 4480 nM.

In the case of `O=C(O)C[C@H](Cc1ccccc1)NC(=O)[C@@H]1Cc2c([nH]c3ccccc23)[C@H]2C[C@H](NC(=O)OCc3ccccc3)C(=O)N21`, the half-maximal inhibitory concentration (IC50) in assay [1] is over 10000 nM; in assay [2], 88 nM.

Turning to `O=C(O)C[C@H](Cc1ccccc1)NC(=O)[C@@H]1Cc2c([nH]c3ccccc23)[C@@H]2C[C@H](NC(=O)OCc3ccccc3)C(=O)N12`, the concentration for half-maximal inhibition (IC50) in assay [1] was over 10000 nM; in assay [2], 635 nM.

Regarding `C[Si](C)(C)CCOC(=O)C[C@@H](Cc1ccccc1)NC(=O)[C@@H]1Cc2c([nH]c3ccccc23)[C@H]2C[C@H](NC(=O)OCc3ccccc3)C(=O)N21`, the figures for the concentration for half-maximal inhibition (IC50) in assay [1] and in assay [2] were 1500 nM and 180 nM, respectively.

As to `CC(C)(C)OC(=O)N[C@H]1C[C@@H]2c3[nH]c4ccccc4c3C[C@@H](C(=O)N[C@H](CC(=O)O)Cc3ccccc3)N2C1=O`, the IC50 in assay [1] and in assay [2] was over 10000 nM each time.

In the case of `O=C(O)C[C@@H](Cc1ccccc1)NC(=O)[C@@H]1Cc2c([nH]c3ccccc23)[C@@H]2C[C@H](NC(=O)OCc3ccccc3)C(=O)N12`, the concentration for half-maximal inhibition (IC50) in assay [1] was over 10000 nM; in assay [2] it was 1000 nM.

Consider `C[Si](C)(C)CCOC(=O)C[C@H](Cc1ccccc1)NC(=O)[C@@H]1Cc2c([nH]c3ccccc23)[C@H]2C[C@H](NC(=O)OCc3ccccc3)C(=O)N21`, for which the half-inhibitory concentration (IC50) was found to be 2400 nM in assay [1] and 220 nM in assay [2].

In the case of `C[Si](C)(C)CCOC(=O)C[C@H](Cc1ccccc1)NC(=O)[C@@H]1Cc2c([nH]c3ccccc23)[C@@H]2C[C@H](NC(=O)OCc3ccccc3)C(=O)N12`, the IC50 is over 10000 nM in assay [1] and 460 nM in assay [2].

Take `O=C(O)C[C@@H](Cc1ccccc1)NC(=O)[C@@H]1Cc2c([nH]c3ccccc23)[C@H]2C[C@H](NC(=O)OCc3ccccc3)C(=O)N21`: the figures for the half-maximal inhibitory concentration (IC50) in assay [1] and in assay [2] were 2700 nM and 7.4 nM, respectively.

For the origin of these results see ChEMBL document CHEMBL1131696, “Highly constrained dipeptoid analogues containing a type II' beta-turn mimic as novel and selective CCK-A receptor ligands” (Bioorg Med Chem Lett, 1999).
